Reference: patent US10414765B2, “Substituted perhydropyrrolo[3,4-c]pyrrole derivatives and the use of same” (BAYER PHARMA AKTIENGESELLSCHAFT, priority 2015, dated 2019)

Experiments:
Assay type in all cases: cell-based
human TASK-1 [1] = biological target: T1, human TASK-1 (Homo sapiens (Human), UniProt O14649); experiment: Inhibition of recombinant TASK-1 in stably transfected CHO cells (voltage-sensitive dye, 40 mM KCl depolarization); details: 40 mM potassium chloride
Procedure: (§1) B-2. Inhibition of Recombinant TASK-1 and TASK-3 In Vitro
(§2) The investigations on the inhibition of the recombinant TASK-1 and TASK-3 channels were conducted using stably transfected CHO cells. The compounds according to the invention were tested in this case by application of 40 mM potassium chloride in the presence of a voltage-sensitive dye according to the methods described in detail in the following references [Whiteaker et al., Validation of FLIPR membrane potential dye for high-throughput screening of potassium channel modulators, J. Biomol. Screen. 6 (5), 305-312 (2001); Molecular Devices FLIPR Application Note: Measuring membrane potential using the FLIPR® membrane potential assay kit on Fluorometric Imaging Plate Reader (FLIPR®) systems, http://www.moleculardevices.com/reagents-supplies/assay-kits/ion-channels/flipr-membrane-potential-assay-kits]. The activity of the test substances was determined as their ability to inhibit a depolarization induced in the recombinant cells by 40 mM potassium chloride. The concentration which can block half of this depolarization is referred to as IC50.

human TASK-3 [2] = biological target: T2, human TASK-3 (Homo sapiens (Human), UniProt Q9NPC2); experiment: Inhibition of recombinant TASK-3 in stably transfected CHO cells (voltage-sensitive dye, 40 mM KCl depolarization); details: 40 mM potassium chloride
Procedure: as §1, §2

human TASK-1 [3] = biological target: T1, human TASK-1; experiment: Two-electrode voltage clamp of human TASK-1 channels expressed in Xenopus laevis oocytes
Procedure: (§3) B-1. In Vitro Electrophysiological Analysis of the Human TASK-1 and TASK-3 Channels Via Two-Electrode Voltage Clamp Technique in Xenopus laevis Oocytes
(§4) Xenopus laevis oocytes were selected as described elsewhere by way of illustration [Decher et al., FEBS Lett. 492, 84-89 (2001)]. Subsequently, the oocytes were injected with 0.5-5 ng of a cRNA solution coding for TASK-1 or TASK-3. For the electrophysiological analysis of the channel proteins expressed in the oocytes, the two-electrode voltage clamp technique [Stiihmer, Methods Enzymol. 207, 319-339 (1992)] was used. The measurements were conducted as described [Decher et al., FEBS Lett. 492, 84-89 (2001)] at room temperature (21-22° C.) using a Turbo TEC 10CD amplifier (NPI), recorded at 2 kHz and filtered with 0.4 kHz. Substance administration was performed using a gravitation-driven perfusion system. Here, the oocyte is located in a measuring chamber and exposed to the solution stream of 10 ml/min. The level in the measuring chamber is monitored and regulated by sucking off the solution using a peristaltic pump.

human TASK-3 [4] = biological target: T2, human TASK-3; experiment: Two-electrode voltage clamp of human TASK-3 channels expressed in Xenopus laevis oocytes
Procedure: as §3, §4

T2 sequence (Q9NPC2 whole entry): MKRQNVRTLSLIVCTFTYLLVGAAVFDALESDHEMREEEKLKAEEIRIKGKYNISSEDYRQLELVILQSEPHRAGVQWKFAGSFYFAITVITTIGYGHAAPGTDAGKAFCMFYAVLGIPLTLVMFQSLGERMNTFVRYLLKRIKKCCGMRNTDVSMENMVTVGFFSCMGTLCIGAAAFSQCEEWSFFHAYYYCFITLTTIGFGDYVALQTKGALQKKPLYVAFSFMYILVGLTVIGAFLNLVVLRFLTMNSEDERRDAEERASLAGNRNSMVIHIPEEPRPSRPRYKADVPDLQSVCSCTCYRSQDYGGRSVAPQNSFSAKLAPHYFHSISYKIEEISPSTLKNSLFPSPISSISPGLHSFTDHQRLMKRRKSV
T1 sequence (O14649 whole entry): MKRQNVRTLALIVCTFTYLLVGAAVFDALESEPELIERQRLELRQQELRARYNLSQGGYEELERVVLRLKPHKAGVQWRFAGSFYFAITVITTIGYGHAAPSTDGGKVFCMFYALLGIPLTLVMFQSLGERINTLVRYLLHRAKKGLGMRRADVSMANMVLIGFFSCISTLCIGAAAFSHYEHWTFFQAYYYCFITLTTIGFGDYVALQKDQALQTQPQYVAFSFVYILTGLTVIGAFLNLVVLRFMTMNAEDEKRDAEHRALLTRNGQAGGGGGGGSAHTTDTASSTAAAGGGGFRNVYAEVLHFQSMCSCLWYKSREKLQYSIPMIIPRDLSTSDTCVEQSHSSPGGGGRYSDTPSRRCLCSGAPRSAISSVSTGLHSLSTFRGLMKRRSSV

SMILES	IC50 (human TASK-1 [1]) [nM]	IC50 (human TASK-3 [2]) [nM]	other results
O=C(c1ccccc1)N1CC2CN(Cc3c(-c4ccc(Cl)cc4)nc4ccc(-c5ccccc5)cn34)CC2C1 (centres unmarked) [Example 160 in WO 2014/187922, reference compound]	15000	2400	–
COc1ccccc1C(=O)N1CC2CN(Cc3c(-c4ccc(Br)cc4)nc4ccccn34)CC2C1 (centres unmarked) [Example 11]	1210	2500	–
COc1cccc(C(=O)N2CC3CN(Cc4c(-c5ccc(Cl)cc5)nc5ccccn45)CC3C2)n1 (centres unmarked) [Example 4, [5-{[2-(4-Chlorophenyl)imidazo[1,2-a]pyridin-3-yl]methyl}hexahydropyrrolo[3,4-c]pyrrol-2(1H)-yl](6-methoxypyridin-2-yl)methanone]	947	2300	IC50 (human TASK-1 [3]): 59.9 ± 16.2 nM; IC50 (human TASK-3 [4]): 256 ± 48.8 nM
O=C(c1cc(F)ccc1Cl)N1CC2CN(Cc3c(-c4ccc(Br)cc4)nc4ccccn34)CC2C1 (centres unmarked) [Example 7]	787	4300	–
O=C(C1CCCCC1)N1CC2CN(Cc3c(-c4ccc(Br)cc4)nc4ccccn34)CC2C1 (centres unmarked) [Example 8]	1360	810	–
CC(C)COC(=O)N1CC2CN(Cc3c(-c4ccc(Br)cc4)nc4ccccn34)CC2C1 (centres unmarked) [Example 32]	1100	1200	–
COc1ccc(F)c(C(=O)N2CC3CN(Cc4c(-c5ccc(Cl)cc5)nc5ccccn45)CC3C2)n1 (centres unmarked) [Example 50]	1100	110	–
COc1ccc(Cl)c(C(=O)N2CC3CN(Cc4c(-c5ccc(Cl)cc5)nc5ccccn45)CC3C2)n1 (centres unmarked) [Example 51]	1400	80	–
CN(C(=O)N1CC2CN(Cc3c(-c4ccc(Br)cc4)nc4ccccn34)CC2C1)c1ccccc1 (centres unmarked) [Example 29, 5-{[2-(4-Bromophenyl)imidazo[1,2-a]pyridin-3-yl]methyl}-N-methyl-N-phenylhexahydropyrrolo[3,4-c]pyrrole-2(1H)-carboxamide]	920	2100	–
O=C(Nc1ccc(F)cc1)N1CC2CN(Cc3c(-c4ccc(Br)cc4)nc4ccccn34)CC2C1 (centres unmarked) [Example 47]	1000	240	–
Cc1ccccc1C(=O)N1CC2CN(Cc3c(-c4ccc(Cl)cc4)nc4ccccn34)CC2C1 (centres unmarked) [Example 20]	1020	2500	–
O=C(c1ccccc1F)N1CC2CN(Cc3c(-c4ccc(Cl)cc4)nc4ccccn34)CC2C1 (centres unmarked) [Example 14]	1060	3400	–
O=C(c1ccccc1)N1CC2CN(Cc3c(-c4ccc(Cl)cc4)nc4ccc(-c5ccccc5)cn34)CC2C1 (centres unmarked) [comparative compound, reference compound]	–	–	IC50 (human TASK-1 [3]): > 10000 nM; inhibition at 1 µM (human TASK-1 [3]; 1 μM): 11.4 ± 1.5%; inhibition at 10 µM (human TASK-1 [3]; 10 μM): 37.2 ± 7.5%; TASK-3 IC50 (human TASK-3 [4]): inactive; inhibition at 1 µM (human TASK-3 [4]; 1 μM): 5.6 ± 1.3%; inhibition at 10 µM (human TASK-3 [4]; 10 μM): 8.9 ± 0.9%
CC(C)(C)OC(=O)N1CC2CN(Cc3c(-c4ccc(Cl)cc4)nc4ccccn34)CC2C1 (centres unmarked) [Example 1, tert-butyl 5-{[2-(4-chlorophenyl)imidazo [1,2-a]pyridin-3-yl]methyl}hexahydropyrrolo[3,4-c]pyrrole-2(1H)-carboxylate]	2410	6100	–
O=C(C1CCCCC1)N1CC2CN(Cc3c(-c4ccc(Cl)cc4)nc4ccccn34)CC2C1 (centres unmarked) [Example 16]	1940	1100	–
O=C(Oc1cccc(C(F)(F)F)c1)N1CC2CN(Cc3c(-c4ccc(Br)cc4)nc4ccccn34)CC2C1 (centres unmarked) [Example 36]	180	450	–
O=C(C1CCCC1)N1CC2CN(Cc3c(-c4ccc(Br)cc4)nc4ccccn34)CC2C1 (centres unmarked) [Example 5, [5-{[2-(4-Bromophenyl)imidazo[1,2-a]pyridin-3-yl]methyl}hexahydropyrrolo[3,4-c]pyrrol-2(1H)-yl](cyclopentyl)methanone]	1130	1600	–
O=C(c1cccc(OC(F)(F)F)c1)N1CC2CN(Cc3c(-c4ccc(Cl)cc4)nc4ccccn34)CC2C1 (centres unmarked) [Example 22]	1460	320	–
O=C(c1cc(F)ccc1Cl)N1CC2CN(Cc3c(-c4ccc(Cl)cc4)nc4ccccn34)CC2C1 (centres unmarked) [Example 15]	1000	2900	–
O=C(Nc1ccc(Cl)c(C(F)(F)F)c1)N1CC2CN(Cc3c(-c4ccc(Br)cc4)nc4ccccn34)CC2C1 (centres unmarked) [Example 43]	1700	2000	–
CC(C)(C)OC(=O)N1CC2CN(Cc3c(-c4ccc(Br)cc4)nc4ccccn34)CC2C1 (centres unmarked) [Example 2]	1730	5400	–
COc1ccc(F)cc1C(=O)N1CC2CN(Cc3c(-c4ccc(Cl)cc4)nc4ccccn34)CC2C1 (centres unmarked) [Example 19]	1250	1500	–
COc1ccccc1C(=O)N1CC2CN(Cc3c(-c4ccc(Cl)cc4)nc4ccccn34)CC2C1 (centres unmarked) [Example 18]	1680	4900	–
O=C(Nc1ccc(F)cc1F)N1CC2CN(Cc3c(-c4ccc(Br)cc4)nc4ccccn34)CC2C1 (centres unmarked) [Example 38, 5-{[2-(4-Bromophenyl)imidazo[1,2-a]pyridin-3-yl]methyl}-N-(2,4-difluorophenyl)hexahydropyrrolo[3,4-c]pyrrole-2(1H)-carboxamide]	1500	1900	–
CC(C)c1ccc(-c2nc3ccccn3c2CN2CC3CN(C(=O)OC(C)(C)C)CC3C2)cc1 (centres unmarked) [Example 3]	2500	7400	–
O=C(NC1CCCCC1)N1CC2CN(Cc3c(-c4ccc(Br)cc4)nc4ccccn34)CC2C1 (centres unmarked) [Example 45]	2300	5800	–
COc1ccc(F)cc1C(=O)N1CC2CN(Cc3c(-c4ccc(Br)cc4)nc4ccccn34)CC2C1 (centres unmarked) [Example 12]	1200	960	–
Cc1ccc(F)cc1C(=O)N1CC2CN(Cc3c(-c4ccc(Cl)cc4)nc4ccccn34)CC2C1 (centres unmarked) [Example 21]	1250	230	–

The next lines start with results.

IC50 (human TASK-1 [1]) [nM]	IC50 (human TASK-3 [2]) [nM]	SMILES	other results
300	190	CC(C)c1ccc(-c2nc3ccccn3c2CN2CC3CN(C(=O)C4CCCC4)CC3C2)cc1 (centres unmarked) [Example 28]	–
728	100	O=C(c1cccc(C(F)(F)F)c1)N1CC2CN(Cc3c(-c4ccc(Cl)cc4)nc4ccccn34)CC2C1 (centres unmarked) [Example 23]	–
712	1300	Cc1ccccc1C(=O)N1CC2CN(Cc3c(-c4ccc(Br)cc4)nc4ccccn34)CC2C1 (centres unmarked) [Example 13]	–
78	79	COc1ccc(F)c(C(=O)N2CC3CN(Cc4c(-c5ccc(C(C)C)cc5)nc5ccccn45)CC3C2)n1 (centres unmarked) [Example 48]	–
600	1800	O=C(OCCF)N1CC2CN(Cc3c(-c4ccc(Br)cc4)nc4ccccn34)CC2C1 (centres unmarked) [Example 37]	–
700	2000	O=C(Nc1cc(C(F)(F)F)ccc1Cl)N1CC2CN(Cc3c(-c4ccc(Br)cc4)nc4ccccn34)CC2C1 (centres unmarked) [Example 44]	–
330	800	COc1cccc(C(=O)N2CC3CN(Cc4c(-c5ccc(Br)cc5)nc5ccccn45)CC3C2)n1 (centres unmarked) [Example 24]	–
500	3300	O=C(OC1CCCC1)N1CC2CN(Cc3c(-c4ccc(Br)cc4)nc4ccccn34)CC2C1 (centres unmarked) [Example 34]	–
94	4.6	COc1ccc(C)c(C(=O)N2CC3CN(Cc4c(-c5ccc(Cl)cc5)nc5ccccn45)CC3C2)n1 (centres unmarked) [Example 49]	–
683	1300	O=C(c1ccccc1F)N1CC2CN(Cc3c(-c4ccc(Br)cc4)nc4ccccn34)CC2C1 (centres unmarked) [Example 6]	–
460	4400	O=C(OCc1ccccc1)N1CC2CN(Cc3c(-c4ccc(Br)cc4)nc4ccccn34)CC2C1 (centres unmarked) [Example 33]	–
749	660	O=C(C1CCC1)N1CC2CN(Cc3c(-c4ccc(Br)cc4)nc4ccccn34)CC2C1 (centres unmarked) [Example 9]	–
700	1700	CC(C)OC(=O)N1CC2CN(Cc3c(-c4ccc(Br)cc4)nc4ccccn34)CC2C1 (centres unmarked) [Example 35]	–
460	2200	CC(NC(=O)N1CC2CN(Cc3c(-c4ccc(Br)cc4)nc4ccccn34)CC2C1)c1ccccc1 (centres unmarked) [Example 46]	–
170	170	COc1cccc(C(=O)N2CC3CN(Cc4c(-c5ccc(C(C)C)cc5)nc5ccccn45)CC3C2)c1 (centres unmarked) [Example 27]	–
220	310	CC(C)c1ccc(-c2nc3ccccn3c2CN2CC3CN(C(=O)c4ccccc4F)CC3C2)cc1 (centres unmarked) [Example 26]	–
480	1200	O=C(N1CC2CN(Cc3c(-c4ccc(Br)cc4)nc4ccccn34)CC2C1)N1CCCc2ccccc21 (centres unmarked) [Example 30]	–
580	2900	O=C(Nc1ccccc1F)N1CC2CN(Cc3c(-c4ccc(Br)cc4)nc4ccccn34)CC2C1 (centres unmarked) [Example 41]	–
